Measurements taken from US20250147039A1, “Compounds for complexation of rare earth elements and/or s-, p-, d- block metals, their coordination compounds, peptide conjugates, method of their preparation and use thereof” (USTAV ORGANICKE CHEMIE A BIOCHEMIE AV CR V.V.I., priority 2021, published 2025).

Experiments:
[1] = Formation of 1,5-cz-[M(Lig)] from Lig and M^II ions (metal dependent click-zip) (Charts 6, 7); format: physicochemical; conditions: for conversion to 1,5-cz-[M(Lig)], Pt^II: 50% i-PrOH in MOPS/NaOH buffer pH 7.0; for conversion to 1,5-cz-[M(Lig)], Ca^II / conversion to 1,5-cz-[M(Lig)], Cd^II / conversion to 1,5-cz-[M(Lig)], Mn^II / conversion to 1,5-cz-[M(Lig)], Pb^II / conversion to 1,5-cz-[M(Lig)], Pd^II: MOPS/NaOH buffer pH 7.0, TD728 in 50% i-PrOH
[2] = Formation of 1,5-cz-[Ln(Lig)] from Lig and Ln^III ions (metal dependent click-zip), MOPS/NaOH buffer pH 7.0, analytical HPLC (Charts 1, 2)
[3] = Formation of 1,5-cz-[M(Lig)] from Lig and M^III ions (metal dependent click-zip) (Charts 4, 5); format: physicochemical; conditions: for conversion to 1,5-cz-[M(Lig)], Bi^III: 4% DMSO in MOPS/NaOH buffer pH 7.0, TD728 in 50% i-PrOH; for conversion to 1,5-cz-[M(Lig)], Ir^III / conversion to 1,5-cz-[M(Lig)], Ru^III: 50% i-PrOH in MOPS/NaOH buffer pH 7.0; for conversion to 1,5-cz-[M(Lig)], Sc^III / conversion to 1,5-cz-[M(Lig)], Y^III: MOPS/NaOH buffer pH 7.0, TD728, TD827 in 50% i-PrOH; for conversion to 1,5-cz-[M(Lig)], Y^III: TD714 sum of two diastereoisomers
[4] = 1 hour at 80° C., TD714 sum of two diastereoisomers
[5] = after 1 week at 80° C., 50% i-PrOH in aq. MOPS/NaOH Buffer pH 7.0
[6] = after 1 hour at 80° C., 50% i-PrOH in aq. MOPS/NaOH Buffer pH 7.0
[7] = after 1 week at 80° C., MOPS/NaOH buffer pH 7.0

## CC(C)[Si](C#Cc1cccc(CN2CCN(CC(=O)O)CCN(Cc3cccc(CN=[N+]=[N-])n3)CCN(CC(=O)O)CC2)n1)(C(C)C)C(C)C [TD728]
[1]; 1 week at 80° C.
  conversion to 1,5-cz-[M(Lig)], Pt^II: 0%
  conversion to 1,5-cz-[M(Lig)], Ca^II: 37%
  conversion to 1,5-cz-[M(Lig)], Cd^II: 36%
  conversion to 1,5-cz-[M(Lig)], Mn^II: 1%
  conversion to 1,5-cz-[M(Lig)], Pb^II: 14%
  conversion to 1,5-cz-[M(Lig)], Pd^II: 1%
[1]; 1 hour at 80° C.
  conversion to 1,5-cz-[M(Lig)], Pt^II: 0%
  conversion to 1,5-cz-[M(Lig)], Ca^II: 0%
  conversion to 1,5-cz-[M(Lig)], Mn^II: 0%
  conversion to 1,5-cz-[M(Lig)], Pb^II: 0%
  conversion to 1,5-cz-[M(Lig)], Pd^II: 1%
[1]; [4]
  conversion to 1,5-cz-[M(Lig)], Cd^II: 1%
[2]; [5]
  conversion to 1,5-cz-[Ln(Lig)], Ce^III: 5%
  conversion to 1,5-cz-[Ln(Lig)], Dy^III: 54%
  conversion to 1,5-cz-[Ln(Lig)], Er^III: 72%
  conversion to 1,5-cz-[Ln(Lig)], Eu^III: 35%
  conversion to 1,5-cz-[Ln(Lig)], Gd^III: 32%
  conversion to 1,5-cz-[Ln(Lig)], Ho^III: 60%
  conversion to 1,5-cz-[Ln(Lig)], La^III: 13%
  conversion to 1,5-cz-[Ln(Lig)], Lu^III: 88%
  conversion to 1,5-cz-[Ln(Lig)], Nd^III: 24%
  conversion to 1,5-cz-[Ln(Lig)], Pr^III: 23%
  conversion to 1,5-cz-[Ln(Lig)], Sm^III: 34%
  conversion to 1,5-cz-[Ln(Lig)], Tb^III: 49%
  conversion to 1,5-cz-[Ln(Lig)], Tm^III: 84%
  conversion to 1,5-cz-[Ln(Lig)], Yb^III: 88%
[2]; [6]
  conversion to 1,5-cz-[Ln(Lig)], Ce^III: 0%
  conversion to 1,5-cz-[Ln(Lig)], Dy^III: 1%
  conversion to 1,5-cz-[Ln(Lig)], Er^III: 1%
  conversion to 1,5-cz-[Ln(Lig)], Eu^III: 0%
  conversion to 1,5-cz-[Ln(Lig)], Gd^III: 0%
  conversion to 1,5-cz-[Ln(Lig)], Ho^III: 1%
  conversion to 1,5-cz-[Ln(Lig)], La^III: 0%
  conversion to 1,5-cz-[Ln(Lig)], Lu^III: 2%
  conversion to 1,5-cz-[Ln(Lig)], Nd^III: 0%
  conversion to 1,5-cz-[Ln(Lig)], Pr^III: 0%
  conversion to 1,5-cz-[Ln(Lig)], Sm^III: 0%
  conversion to 1,5-cz-[Ln(Lig)], Tb^III: 0%
  conversion to 1,5-cz-[Ln(Lig)], Tm^III: 1%
  conversion to 1,5-cz-[Ln(Lig)], Yb^III: 2%
[3]; 1 week at 80° C.
  conversion to 1,5-cz-[M(Lig)], Bi^III: 29%
  conversion to 1,5-cz-[M(Lig)], Ir^III: 0%
  conversion to 1,5-cz-[M(Lig)], Ru^III: 0%
  conversion to 1,5-cz-[M(Lig)], Sc^III: 2%
  conversion to 1,5-cz-[M(Lig)], Y^III: 50%
[3]; 1 hour at 80° C.
  conversion to 1,5-cz-[M(Lig)], Bi^III: 5%
  conversion to 1,5-cz-[M(Lig)], Ir^III: 0%
  conversion to 1,5-cz-[M(Lig)], Ru^III: 0%
  conversion to 1,5-cz-[M(Lig)], Sc^III: 0%
  conversion to 1,5-cz-[M(Lig)], Y^III: 1%

## C#Cc1cccc(CN2CCN(CC(=O)O)CCN(Cc3cc(Cl)cc(CN=[N+]=[N-])n3)CCN(CC(=O)O)CC2)n1 [TD764]
[1]; 1 week at 80° C.
  conversion to 1,5-cz-[M(Lig)], Ca^II: 95%
  conversion to 1,5-cz-[M(Lig)], Cd^II: 96%
  conversion to 1,5-cz-[M(Lig)], Mn^II: 35%
  conversion to 1,5-cz-[M(Lig)], Pb^II: 37%
  conversion to 1,5-cz-[M(Lig)], Pd^II: 9%
[1]; 1 hour at 80° C.
  conversion to 1,5-cz-[M(Lig)], Ca^II: 16%
  conversion to 1,5-cz-[M(Lig)], Mn^II: 1%
  conversion to 1,5-cz-[M(Lig)], Pb^II: 1%
  conversion to 1,5-cz-[M(Lig)], Pd^II: 10%
[1]; [4]
  conversion to 1,5-cz-[M(Lig)], Cd^II: 53%
[2]; [7]
  conversion to 1,5-cz-[Ln(Lig)], Ce^III: 20%
  conversion to 1,5-cz-[Ln(Lig)], Dy^III: 93%
  conversion to 1,5-cz-[Ln(Lig)], Er^III: 95%
  conversion to 1,5-cz-[Ln(Lig)], Eu^III: 79%
  conversion to 1,5-cz-[Ln(Lig)], Gd^III: 86%
  conversion to 1,5-cz-[Ln(Lig)], Ho^III: 94%
  conversion to 1,5-cz-[Ln(Lig)], La^III: 25%
  conversion to 1,5-cz-[Ln(Lig)], Lu^III: 96%
  conversion to 1,5-cz-[Ln(Lig)], Nd^III: 50%
  conversion to 1,5-cz-[Ln(Lig)], Pr^III: 35%
  conversion to 1,5-cz-[Ln(Lig)], Sm^III: 73%
  conversion to 1,5-cz-[Ln(Lig)], Tb^III: 91%
  conversion to 1,5-cz-[Ln(Lig)], Tm^III: 96%
  conversion to 1,5-cz-[Ln(Lig)], Yb^III: 96%
[3]; 1 week at 80° C.
  conversion to 1,5-cz-[M(Lig)], Bi^III: 85%
  conversion to 1,5-cz-[M(Lig)], Sc^III: 5%
  conversion to 1,5-cz-[M(Lig)], Y^III: 95%
[3]; 1 hour at 80° C.
  conversion to 1,5-cz-[M(Lig)], Bi^III: 31%
